# In patent publication US20260365646A1, “AKT1 MODULATORS” (Alterome Therapeutics, Inc., priority 2022, published 2026):
# Biological target: T1, full length AKT E17K (Homo sapiens, UniProt P31749, E17K)
# T1 construct: host or cells: HEK-293 (ATCC CRL-1573)
# Assay: NanoBRET Target Engagement (TE) Intracellular Kinase Assay
# Type: cell-based
# Details: not given
# Summary of the method: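 Live-cell BRET assay: cells expressing NanoLuc-fused full-length AKT E17K incubated 2 h with tracer at target-optimized concentration plus compound. BRET read at 450 nm donor/600 nm acceptor with extracellular NanoLuc inhibitor. EC50 from sigmoidal variable-slope fit of tracer displacement.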
# T1 sequence (P31749 whole entry E17K): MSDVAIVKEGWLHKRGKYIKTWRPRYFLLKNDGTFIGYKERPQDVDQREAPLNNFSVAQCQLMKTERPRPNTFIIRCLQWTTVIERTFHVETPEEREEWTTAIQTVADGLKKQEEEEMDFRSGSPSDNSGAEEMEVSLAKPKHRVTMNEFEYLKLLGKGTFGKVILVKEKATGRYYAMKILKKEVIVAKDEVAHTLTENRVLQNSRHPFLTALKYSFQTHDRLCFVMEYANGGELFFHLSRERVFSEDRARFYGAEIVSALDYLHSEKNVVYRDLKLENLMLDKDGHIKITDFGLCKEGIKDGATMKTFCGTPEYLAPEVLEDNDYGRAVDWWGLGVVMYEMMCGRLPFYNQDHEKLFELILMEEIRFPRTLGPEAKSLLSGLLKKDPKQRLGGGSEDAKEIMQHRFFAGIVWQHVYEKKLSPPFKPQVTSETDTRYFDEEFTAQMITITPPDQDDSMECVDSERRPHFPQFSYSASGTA
row,Structure (SMILES),EC50
1,"COc1c(N2[C@H](C)CN(Cc3ccc(-n4c(-c5cccnc5N)nc5ccc(-c6ccccc6)nc54)cc3)C[C@H]2C)c(=O)c1=O [Example 69, 3-((2R,6R)-4-(4-(2-(2-aminopyridin-3-yl)-5-phenyl-3H-imidazo[4,5-b]pyridin-3-yl)benzyl)-2,6-dimethylpiperazin-1-yl)-4-methoxycyclobut-3-ene-1,2-dione]",60 to 600 nM
2,"COc1c(N2[C@H](C)CN(Cc3ccc(-n4c(-c5cccnc5N)nc5ccc(-c6ccccc6)nc54)cc3)C[C@@H]2C)c(=O)c1=O [Example 68, 3-((2S,6R)-4-(4-(2-(2-aminopyridin-3-yl)-5-phenyl-3H-imidazo[4,5-b]pyridin-3-yl)benzyl)-2,6-dimethylpiperazin-1-yl)-4-methoxycyclobut-3-ene-1,2-dione]",60 to 600 nM
3,"COc1c(N2C[C@H]3CN(Cc4ccc(-n5c(-c6cccnc6N)nc6ccc(-c7ccccc7)nc65)cc4)C[C@H]3C2)c(=O)c1=O [Example 86, 3-((3aR,6aS)-5-(4-(2-(2-aminopyridin-3-yl)-5-phenyl-3H-imidazo[4,5-b]pyridin-3-yl)benzyl)hexahydropyrrolo[3,4-c]pyrrol-2(1H)-yl)-4-methoxycyclobut-3-ene-1,2-dione]",15 to 60 nM
4,"CC(C)Oc1c(NC2CCN(Cc3ccc(-n4c(-c5cccnc5N)nc5ccc(-c6ccccc6)nc54)cc3)CC2)c(=O)c1=O [Example 11, 3-((1-(4-(2-(2-aminopyridin-3-yl)-5-phenyl-3H-imidazo[4,5-b]pyridin-3-yl)benzyl)piperidin-4-yl)amino)-4-isopropoxycyclobut-3-ene-1,2-dione]",15 to 60 nM
5,"COc1c(Nc2cccc(C(=O)NCc3ccc(-n4c(-c5cccnc5N)nc5ccc(-c6ccccc6)nc54)cc3)c2)c(=O)c1=O [Example 33, N-(4-(2-(2-aminopyridin-3-yl)-5-phenyl-3H-imidazo[4,5-b]pyridin-3-yl)benzyl)-3-((2-methoxy-3,4-dioxocyclobut-1-en-1-yl)amino)benzamide]",60 to 600 nM
6,"COc1c(N2CCN(Cc3ccc(-n4c(-c5cccnc5N)nc5cccnc54)cc3)CC2)c(=O)c1=O [Example 1, 3-(4-(4-(2-(2-Aminopyridin-3-yl)-3H-imidazo[4,5-b]pyridin-3-yl)benzyl)piperazin-1-yl)-4-methoxycyclobut-3-ene-1,2-dione]",> 600 nM
7,"CCSc1c(N2CCC3(CC2)CN(Cc2ccc(-n4c(-c5cccnc5N)nc5ccc(-c6ccccc6)nc54)cc2)C3)c(=O)c1=O [Example 61, 3-(2-(4-(2-(2-Aminopyridin-3-yl)-5-phenyl-3H-imidazo[4,5-b]pyridin-3-yl)benzyl)-2,7-diazaspiro[3.5]nonan-7-yl)-4-(ethylthio)cyclobut-3-ene-1,2-dione]",15 to 60 nM
8,"COc1c(NC2CCN(Cc3ccc(-n4c(-c5cccnc5N)nc5cccnc54)cc3)CC2)c(=O)c1=O [Example 3, 3-((1-(4-(2-(2-Aminopyridin-3-yl)-3H-imidazo[4,5-b]pyridin-3-yl)benzyl)piperidin-4-yl)amino)-4-methoxycyclobut-3-ene-1,2-dione]",15 to 60 nM
9,"Nc1ncccc1-c1nc2ccc(-c3ccccc3)nc2n1-c1ccc(CN2CCC(Nc3c(OC4CCCC4)c(=O)c3=O)CC2)cc1 [Example 14, 3-((1-(4-(2-(2-Aminopyridin-3-yl)-5-phenyl-3H-imidazo[4,5-b]pyridin-3-yl)benzyl)piperidin-4-yl)amino)-4-(cyclopentyloxy)cyclobut-3-ene-1,2-dione]",60 to 600 nM
10,"COc1c(N2CCN(Cc3ccc(-n4c(-c5cccnc5N)nc5ccc(-c6cccc(NC(C)=O)c6)nc54)cc3)CC2)c(=O)c1=O [Example 7, N-(3-(2-(2-Aminopyridin-3-yl)-3-(4-((4-(2-methoxy-3,4-dioxocyclobut-1-en-1-yl)piperazin-1-yl)methyl)phenyl)-3H-imidazo[4,5-b]pyridin-5-yl)phenyl)acetamide]",15 to 60 nM
11,"CCSc1c(N(C2CC2)C2CCN(Cc3ccc(-n4c(-c5cccnc5N)nc5ccc(-c6ccccc6)nc54)cc3)CC2)c(=O)c1=O [Example 96, 3-((1-(4-(2-(2-aminopyridin-3-yl)-5-phenyl-3H-imidazo[4,5-b]pyridin-3-yl)benzyl)piperidin-4-yl)(cyclopropyl)amino)-4-(ethylthio)cyclobut-3-ene-1,2-dione]",15 to 60 nM
12,"COc1c(N2CCN(Cc3ccc(-n4c(-c5cccnc5N)nc5ccc(-c6ccccc6)nc54)cc3)C[C@H]2C)c(=O)c1=O [Example 67, (R)-3-(4-(4-(2-(2-aminopyridin-3-yl)-5-phenyl-3H-imidazo[4,5-b]pyridin-3-yl)benzyl)-2-methylpiperazin-1-yl)-4-methoxycyclobut-3-ene-1,2-dione]",60 to 600 nM
13,"CN(C)c1c(NC2CCN(Cc3ccc(-n4c(-c5cccnc5N)nc5ccc(-c6ccccc6)nc54)cc3)CC2)c(=O)c1=O [Example 19, 3-((1-(4-(2-(2-Aminopyridin-3-yl)-5-phenyl-3H-imidazo[4,5-b]pyridin-3-yl)benzyl)piperidin-4-yl)amino)-4-(dimethylamino)cyclobut-3-ene-1,2-dione]",> 600 nM
14,"Nc1ncccc1-c1nc2ccc(-c3ccccc3)nc2n1-c1ccc(CN2CCN(c3c(O)c(=O)c3=O)CC2)cc1 [Example 22, 3-(4-(4-(2-(2-Aminopyridin-3-yl)-5-phenyl-3H-imidazo[4,5-b]pyridin-3-yl)benzyl)piperazin-1-yl)-4-hydroxycyclobut-3-ene-1,2-dione]",> 600 nM
15,"CN(c1c(S)c(=O)c1=O)C1CCN(Cc2ccc(-n3c(-c4cccnc4N)nc4ccc(-c5ccccc5)nc43)cc2)CC1 [Example 46, 3-((1-(4-(2-(2-aminopyridin-3-yl)-5-phenyl-3H-imidazo[4,5-b]pyridin-3-yl)benzyl)piperidin-4-yl)(methyl)amino)-4-mercaptocyclobut-3-ene-1,2-dione]",> 600 nM
16,"COc1c(NC2CCN(C(=O)c3ccc(-n4c(-c5cccnc5N)nc5ccc(-c6ccccc6)nc54)cc3)CC2)c(=O)c1=O [Example 28, 3-((1-(4-(2-(2-Aminopyridin-3-yl)-5-phenyl-3H-imidazo[4,5-b]pyridin-3-yl)benzoyl)piperidin-4-yl)amino)-4-methoxycyclobut-3-ene-1,2-dione]",> 600 nM
17,"COc1c(N2CCN(Cc3ccc(-n4c(-c5cccnc5N)nc5ccc(-c6ccccc6)nc54)cc3)C[C@@H]2CO)c(=O)c1=O [Example 79, (R)-3-(4-(4-(2-(2-aminopyridin-3-yl)-5-phenyl-3H-imidazo[4,5-b]pyridin-3-yl)benzyl)-2-(hydroxymethyl)piperazin-1-yl)-4-methoxycyclobut-3-ene-1,2-dione]",60 to 600 nM
18,"Nc1ncccc1-c1nc2ccc(-c3ccccc3)nc2n1-c1ccc(CN2CCC(Nc3c(O)c(=O)c3=O)CC2)cc1 [Example 18, 3-((1-(4-(2-(2-Aminopyridin-3-yl)-5-phenyl-3H-imidazo[4,5-b]pyridin-3-yl)benzyl)piperidin-4-yl)amino)-4-hydroxycyclobut-3-ene-1,2-dione]",> 600 nM
19,"COc1c(N2CCC3(CCN(Cc4ccc(-n5c(-c6cccnc6N)nc6ccc(-c7ccccc7)nc65)cc4)CC3)C2)c(=O)c1=O [Example 54, 3-(8-(4-(2-(2-Aminopyridin-3-yl)-5-phenyl-3H-imidazo[4,5-b]pyridin-3-yl)benzyl)-2,8-diazaspiro[4.5]decan-2-yl)-4-methoxycyclobut-3-ene-1,2-dione]",15 to 60 nM
20,"Nc1ncccc1-c1nc2ccc(-c3ccccc3)nc2n1-c1ccc(CNC(=O)c2cccc(Nc3c(O)c(=O)c3=O)c2)cc1 [Example 43, N-(4-(2-(2-Aminopyridin-3-yl)-5-phenyl-3H-imidazo[4,5-b]pyridin-3-yl)benzyl)-3-((2-hydroxy-3,4-dioxocyclobut-1-en-1-yl)amino)benzamide]",> 600 nM

# Same assay, conditions: read-out: NanoBRET AKT1E17K EC50; HEK-293 cells transfected with NanoLuc-AKT E17K; competitive displacement of NanoBRET tracer; 2 hr equilibration; 10-point 3-fold dilution
row,Structure (SMILES),EC50
1,"CCSc1c(N(C)N2CCN(Cc3ccc(-n4c(-c5cccnc5N)nc5ccc(-c6ccccc6)nc54)cc3)CC2)c(=O)c1=O [Example 97, 3-((4-(4-(2-(2-aminopyridin-3-yl)-5-phenyl-3H-imidazo[4,5-b]pyridin-3-yl)benzyl)piperazin-1-yl)(methyl)amino)-4-(ethylthio)cyclobut-3-ene-1,2-dione]",< 15 nM
2,"[2H]C([2H])([2H])Oc1c(NC2CCN(Cc3ccc(-n4c(-c5cccnc5N)nc5ccc(-c6ccccc6)nc54)cc3)CC2)c(=O)c1=O [Example 13, 3-((1-(4-(2-(2-Aminopyridin-3-yl)-5-phenyl-3H-imidazo[4,5-b]pyridin-3-yl)benzyl)piperidin-4-yl)amino)-4-(methoxy-d3)cyclobut-3-ene-1,2-dione]",< 15 nM
3,"COc1c(N(C2CC2)C2CCN(Cc3ccc(-n4c(-c5cccnc5N)nc5ccc(-c6ccccc6)nc54)cc3)CC2)c(=O)c1=O [Example 94, 3-((1-(4-(2-(2-aminopyridin-3-yl)-5-phenyl-3H-imidazo[4,5-b]pyridin-3-yl)benzyl)piperidin-4-yl)(cyclopropyl)amino)-4-methoxycyclobut-3-ene-1,2-dione]",< 15 nM
4,"CSc1c(N2CCC3(CC2)CN(Cc2ccc(-n4c(-c5cccnc5N)nc5ccc(-c6ccccc6)nc54)cc2)C3)c(=O)c1=O [Example 64, 3-(2-(4-(2-(2-aminopyridin-3-yl)-5-phenyl-3H-imidazo[4,5-b]pyridin-3-yl)benzyl)-2,7-diazaspiro[3.5]nonan-7-yl)-4-(methylthio)cyclobut-3-ene-1,2-dione]",< 15 nM
5,"COc1c(NC2CCN(Cc3ccc(-n4c(-c5cccnc5N)nc5ccc(-c6ccccc6)nc54)cc3)CC2)c(=O)c1=O [Example 17, 3-((1-(4-(2-(2-Aminopyridin-3-yl)-5-phenyl-3H-imidazo[4,5-b]pyridin-3-yl)benzyl)piperidin-4-yl)amino)-4-methoxycyclobut-3-ene-1,2-dione]",< 15 nM
6,"COc1c(N[C@H]2CCN(Cc3ccc(-n4c(-c5cccnc5N)nc5ccc(-c6ccccc6)nc54)cc3)C2)c(=O)c1=O [Example 30, (S)-3-((1-(4-(2-(2-Aminopyridin-3-yl)-5-phenyl-3H-imidazo[4,5-b]pyridin-3-yl)benzyl)pyrrolidin-3-yl)amino)-4-methoxycyclobut-3-ene-1,2-dione]",< 15 nM
